Test results taken from patent US6603023B2 (priority 1996, dated 2003).
Several values for one entry are separate records, joined by “and”; a condition that tells them apart may be missing. Identical values can stand only once. Counter-ions that a name gives are not always drawn. Like-named read-outs stand apart in the source and are kept apart here.

Tests used:
[1] = system: human mammary carcinoma MX-1 xenograft; conditions: for Average Body Weight, Day 7: initial weight, first treatment day; for Note: died (mice died/total): male, athymic nude (nu/nu)
Protocol: DMSO was used as a vehicle for epothilones. Each mouse received ≦40 μL DMSO in all experiments.
Athymic nude mice (nu/nu) were used for MX-1 and MCF-7/Adr human mammary carcinoma xenografts. Mice were obtained from Taconic Laboratory Animals and Service (Germantown, N.Y.: outbred, Swiss background).

Human CCRF-CEM Xenograft = assay: CCRF-CEM xenograft in scid mice; type: in vivo, CB-17 scid mice
[2] = high doses: dEpoB 25, EpoB 0.6, Taxol 10, Vinblastine 0.4 mg/kg i.p. Q2D from day 7
[3] = low doses: dEpoB 15, EpoB 0.3, Taxol 5, Vinblastine 0.2 mg/kg i.p. Q2D day 7-15
[4] = dose 0.2 i.p. QD d7-10,14,15, day 12
[5] = dose 0.2 i.p. QD d7-10,14,15, day 17
[6] = dose 0.2 i.p. QD d7-10,14,15, day 22
[7] = dose 0.4 i.p. QD d7-10,14,15, day 12
[8] = dose 0.4 i.p. QD d7-10,14,15, day 17
[9] = dose 0.4 i.p. QD d7-10,14,15, day 22

## CC[C@]1(O)C[C@@H]2CN(CCc3c([nH]c4ccccc34)[C@@](C(=O)OC)(c3cc4c(cc3OC)N(C)[C@H]3[C@@](O)(C(=O)OC)[C@H](OC(C)=O)[C@]5(CC)C=CCN6CC[C@]43[C@@H]65)C2)C1 [Vinblastine, Vinblastine sulfate]
[1]; 0.2 mg/kg i.p. Q2Dx5 from day 7, day 11
  Average Body Weight Change: +0.6 g
[1]; 0.2 mg/kg i.p. Q2Dx5 from day 7, day 13
  Average Body Weight Change: +1.4 g
[1]; 0.2 mg/kg i.p. Q2Dx5 from day 7, day 15
  Average Body Weight Change: +2.3 g
[1]; 0.2 mg/kg i.p. Q2Dx5 from day 7, day 17
  Average Body Weight Change: +2.9 g
[1]; 0.4 mg/kg i.p. Q2Dx5 from day 7, day 11
  Average Body Weight Change: +0.8 g
[1]; 0.4 mg/kg i.p. Q2Dx5 from day 7, day 13
  Average Body Weight Change: +0.5 g
[1]; 0.4 mg/kg i.p. Q2Dx5 from day 7, day 15
  Average Body Weight Change: +1.9 g
[1]; 0.4 mg/kg i.p. Q2Dx5 from day 7, day 17
  Average Body Weight Change: +2.1 g
[1]; [2]
  Average Tumor Volume (T/C), Day 11: 0.80 T/C
  Average Tumor Volume (T/C), Day 13: 0.56 T/C
  Average Tumor Volume (T/C), Day 15: 0.83 T/C
  Average Tumor Volume (T/C), Day 17: 0.88 T/C
  Average Body Weight, Day 7: 26.4 g
[1]; [3]
  Average Body Weight, Day 7: 25.7 g
  Average Tumor Volume (T/C), Day 11: 0.65 T/C
  Average Tumor Volume (T/C), Day 13: 0.54 T/C
  Average Tumor Volume (T/C), Day 15: 0.56 T/C
  Average Tumor Volume (T/C), Day 17: 0.88 T/C
[1]; mouse, in vivo
  Note: died (mice died/total): 0/7 died
  Average Tumor Size (T/C): 0.88 and 0.65 and 0.54 and 0.56 and 0.80 and 0.83
[1]; outbred, Swiss background, mouse, in vivo
  Note: died (mice died/total): 1/7 died
Human CCRF-CEM Xenograft; dose 0.2 i.p. QD d7-10,14,15, day 7
  Average weight change: +0.2
Human CCRF-CEM Xenograft; [4]
  Average tumor volume (control = 1.00): 0.45
  Average weight change: −0.8
Human CCRF-CEM Xenograft; [5]
  Average tumor volume (control = 1.00): 0.25
  Average weight change: −1.5
Human CCRF-CEM Xenograft; [6]
  Average tumor volume (control = 1.00): 0.29
  Average weight change: −0.3
Human CCRF-CEM Xenograft; dose 0.4 i.p. QD d7-10,14,15, day 7
  Average weight change: −0.1
Human CCRF-CEM Xenograft; [7]
  Average tumor volume (control = 1.00): 0.31
  Average weight change: −1.4
Human CCRF-CEM Xenograft; [8]
  Average tumor volume (control = 1.00): 0.27
  Average weight change: −1.8
Human CCRF-CEM Xenograft; [9]
  Average tumor volume (control = 1.00): 0.30
  Average weight change: −0.7
